Laboratory results as given in patent US12607637B2, “Super-resolution morphology-correlated detection of labile zinc” (University of Cincinnati, priority 2020, dated 2026).
Where “and” joins values, the source holds several entries; their conditions need not be identical. Identical values can stand only once.

Columns and labels:
HeLa cells [1] = test: Photostability in cells under continuous laser stimulation; assay type: cell-based
Description: At the same time, because NapBu-BPEA's optical stability is an important factor in super-resolution imaging, a long-term continuous laser (300 s) stimulation of cells was carried out, capturing images every 20 s in order to monitor the photostability of NapBu-BPEA and MTDR in cells (FIG. 4(f), (g)). […] These characteristics enabled NapBu-BPEA to dynamically monitor cellular ultrastructures with long-term super-resolution imaging.

HeLa cells [2] = test: SIM imaging of labile Zn^2+ during CCCP- or EBSS-induced autophagy; assay type: cell-based
Excerpt: The SIM images were acquired using a Nikon N-SIM system. The blue imaging channel for Hoechst 33258 with emission bandwidth at 420-495 nm upon excitation at 405 nm, the green imaging channel for NapBu-BPEA with emission bandwidth at 500-550 nm upon excitation at 488 nm, the red imaging channel for ER-Tracker Red, LysoTracker Red and DAPRed with emission bandwidth at 570-640 nm upon excitation at 561 nm, the magenta imaging channel for MitoTracker Deep Red with emission bandwidth at 660-735 nm upon excitation at 640 nm were utilized. The imaging data analysis and thermal map construction were performed via analysis with ImageJ.
The intracellular Zn^2+ level in autophagy was imaged in HeLa cells. Prior to CCCP (10 μM, 24 h) or EBSS treatment ([…]), the cells were stained with DAPRed (1 μM, 30 min). The cells were finally stained by NapBu-BPEA (10 μM, 1 h) before SIM imaging.

[3] = Zn^2+ fluorescence titration, Job's plot, detection limit, binding constant, metal ion selectivity and TPEN reversibility in HEPES/DMSO
Description: (§1) The stock solution of NapBu-BPEA was prepared with DMSO of HPLC pure grade to make the concentration as 10 mM, and frozen after packing at −20° C. The sample solutions were diluted to the final concentration as 10 μM with 3 mL HEPES buffer (50 mM, 100 mM KNO3, 10% DMSO, pH 7.2) in quartz cuvettes with 1 cm path lengths. The fluorescent spectra were recorded upon the excitation of 450 nm.
(§2) The Zn^2+ titration spectra were recorded by adding in aliquots Zn^2+ solution from 0 to 15 μM into the NapBu-BPEA solution (10 μM). The detection limit of NapBu-BPEA was determined by collecting the fluorescence spectra of NapBu-BPEA for 6 times to obtain the background noise (a). The probe's fluorescent sensing selectivity of NapBu-BPEA was recorded after adding metal cation (1000 eq K^+, Na^+, Ca^2+, Mg^2+; 1 eq Cd^2+, Ni^2+, Cr^3+, Pb^2+, Al^3+, Co^2+, Fe^2+, Fe^3+, Ba^2+, Mn^2+) to the NapBu-BPEA solution. The fluorescence quantum yields were determined by using Ru(bpy)3^2+ (Φ=0.04) in DMSO/HEPES (v:v, 1:9)(λex=450 nm) as the reference. To determine binding constant, various amounts of Zn(NO3)2 (0˜9 mM) were added to NapBu-BPEA solution buffered with DMSO/HEPES (50 mM, pH 7.21, 100 mM KNO3) containing 10 mM EGTA. The pH stability was measured by recording the fluorescence spectra of NapBu-BPEA solution in the presence of Zn^2+ at different pH adjusted with KOH and HCl.

[4] = Spectroscopic study: fluorescence quantum yield and pH stability in DMSO/HEPES; assay type: physicochemical; conditions: probe bound to Zn^2+, pH titration
Description: as §1, §2

HeLa cells [5] = test: Cell viability determination via WST (LDH release) assay; assay type: cell-based; conditions: 20 μM, 24 h
Description: The suspension of HeLa cells diluted with 50 μL DMEM was plated into 96-well plate. The inoculated cells were pre-cultured overnight in 96-well plate and replaced with a new 50 μL DMEM. 50 μL DMEM containing different concentrations of NapBu-BPEA was added and cultured in CO2 incubator at 37° C. for 24 h. After 10 μL lysis buffer was added to the high contrast wells, 30 min was cultured in the CO2 incubator at 37° C. After 100 μL working solution was added to each well, it was cultured for 0.5 h under dark and room temperature. After 50 μL stop solution was added to each well, the absorbance of 490 nm was determined immediately by a microplate reader (Thermomax, Molecular Devices).

HeLa cells [6] = test: SIM imaging of intracellular labile Zn^2+ on ZnPT loading and TPEN scavenging; assay type: cell-based
Description: In view of these promising results, a 1:2 mixture of ZnCl2 and pyrithione sodium salt, a cell-permeable Zn^2+ carrier (ZnPT) to transport exogenous Zn^2+ to cells, and a cell-permeable Zn^2+-chelating agent, TPEN, were used to evaluate the reversibility of fluorescence response to Zn^2+ in living cells according to methods described elsewhere. To determine the entry time of exogenous Zn^2+ into cells, NapBu-BPEA was incubated and an initial image was captured, after which 50 μM ZnPT (50 μM ZnCl2/100 μM pyrithione sodium salt) was used to replace the culture medium in dye-free and serum-free DMEM. […] The variance may be attributed to the difference in lipophilicity.
Next, NapBu-BPEA was investigated for its intracellular labile Zn^2+ imaging ability. Imaging experiments were performed in HeLa cells upon exogenous Zn^2+ loading via incubation with zinc pyrithione cmplex (ZnPT), a cell-permeable Zn^2+ carrier.
Intracellular labile Zn^2+ enhancement processes were tracked by recording SIM images every 2 min. […] While not desiring to be bound by theory, it is proposed that the butyl tail of NapBu-BPEA is responsible for the retained multiple organelle accumulation behavior of NapBu-BPEA upon Zn^2+ binding.

FIP200 KO HeLa cells = test: SIM imaging of labile Zn^2+ after CCCP in autophagy-deficient cells; assay type: cell-based
Description: (§3) Wild-type, FIP200 and ATG13 KO HeLa cell lines were gifted from Dr. Jun-Lin Guan's lab (University of Cincinnati). Cells were cultured in DMEM supplemented 10% FBS and 100 U/mL penicillin-streptomycin (Gibco) in 5% CO2 incubator at 37° C.
(§4) Considering that ATG13 and FIP200 are essential proteins for autophagy, to further elucidate the relationship between autophagy and changes in level of Zn^2+ two stable knockout (KO) cell lines were obtained (ATG13 KO HeLa cells and FIP200 KO HeLa cells) via CRISPR/Cas9 gene editing technology.

ATG13 KO HeLa cells = test: as above; assay type: cell-based
Description: as §3, §4

[7] = CCCP treatment, regions selected by morphology

C[N+]1=C(/C=C/C=C/C=C2\N(Cc3ccc(CCl)cc3)c3ccccc3C2(C)C)C(C)(C)c2ccccc21.[Cl-] [MTDR, reference compound]
fluorescence intensity remaining (HeLa cells [1]; after 120 s of laser stimulation): less than 30%

CCCCN1C(=O)c2cccc3c(NCCN(Cc4ccccn4)Cc4ccccn4)ccc(c23)C1=O [NapBu-BPEA, 2,4-(bis(pyridin-2-ylmethyl)aminoethyl)amino-N-n-butyl-1,8-naphthalimide]
green fluorescence intensity in mitophagic versus non-autophagic cells (HeLa cells [2]; CCCP 10 μM, 24 h, probe 10 μM, 1 h): ~2.0 fold | increase of Zn^2+ level (fluorescence intensity) in endoplasmic reticulum during autophagy (HeLa cells [2]; [7]): 1.55 fold | increase of Zn^2+ level (fluorescence intensity) in mitochondria during autophagy (HeLa cells [2]; [7]): 1.89 fold | fluorescence signal of CCCP-treated versus untreated cells (HeLa cells [2]; CCCP-induced mitophagy): improved significantly | fluorescence intensity of EBSS-treated cells (HeLa cells [2]; EBSS starvation 24 h): decreased | limit of detection for Zn^2+ ([3]; 3 σ/slope method): 54.5 nM | fluorescence selectivity against other metal ions ([3]; 1000 eq K+, Na+, Ca2+, Mg2+, 1 eq other cations, response only to Cd^2+): specific fluorescence selectivity for Zn^2+ | Kd ([3]; HEPES 50 mM, 100 mM KNO3, 10% DMSO, 10 mM EGTA, pH 7.21, read-out: dissociation constant (Kd) of the complex between Zn^2+ and NapBu-BPEA): 4.98 nM | reversibility of fluorescence response on TPEN addition ([3]; Zn^2+ 10 μM then TPEN 10 μM, five on-off cycles): favorable reversible response to Zn^2+ | emission enhancement on Zn^2+ titration ([3]; at 540 nm, 10 μM probe): 3.6 fold | photobleaching (HeLa cells [1]; within 300 s of laser stimulation): negligible photobleaching | pH range of stable fluorescence response [4]: 4-8 pH | activity of lactate dehydrogenase released into the medium (HeLa cells [5]): less than 20% | cell viability (HeLa cells [5]): exceeded 80% | time until fluorescence intensity is balanced/stable after exogenous Zn^2+ (HeLa cells [6]; 50 μM ZnPT, images every 2 min): 6 min and 4 min | reversibility of intracellular response (HeLa cells [6]; 100 μM TPEN added to cells): respond reversibly to intracellular Zn^2+ | fluorescence intensity, CCCP-treated versus untreated (FIP200 KO HeLa cells): no significant change in fluorescence intensity | fluorescence intensity, CCCP-treated versus untreated (ATG13 KO HeLa cells): no significant change in fluorescence intensity
